Drawing on ChEMBL document CHEMBL3259612, “Design, synthesis, docking and anti-inflammatory evaluation of novel series of benzofuran based prodrugs” (Bioorg Med Chem Lett, 2014), this text covers IC50, Activity and Ratio IC50 for 12 compounds.

pIC50: −log10 of the molar value.

Test [1] has as its target T1, Prostaglandin G/H synthase 2 (Homo sapiens, UniProt P35354).
T1 sequence (P35354 whole entry): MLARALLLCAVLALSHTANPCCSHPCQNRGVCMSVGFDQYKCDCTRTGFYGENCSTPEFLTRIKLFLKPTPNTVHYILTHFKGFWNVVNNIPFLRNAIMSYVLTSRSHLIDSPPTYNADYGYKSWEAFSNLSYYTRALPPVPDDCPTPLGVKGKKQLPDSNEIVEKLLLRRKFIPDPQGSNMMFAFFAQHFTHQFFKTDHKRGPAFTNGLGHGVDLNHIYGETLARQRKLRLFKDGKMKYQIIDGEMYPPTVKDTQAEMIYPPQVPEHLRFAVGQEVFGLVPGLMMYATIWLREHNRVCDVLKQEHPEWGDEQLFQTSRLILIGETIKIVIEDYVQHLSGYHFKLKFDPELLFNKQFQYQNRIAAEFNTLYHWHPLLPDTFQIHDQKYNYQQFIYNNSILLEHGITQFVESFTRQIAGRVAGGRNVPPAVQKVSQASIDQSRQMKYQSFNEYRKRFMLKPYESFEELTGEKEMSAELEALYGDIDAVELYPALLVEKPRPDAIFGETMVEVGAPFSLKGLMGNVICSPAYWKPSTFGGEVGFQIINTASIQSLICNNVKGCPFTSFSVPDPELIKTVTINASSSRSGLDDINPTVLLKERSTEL
The test is described as follows: Inhibition of human recombinant COX-2 expressed in insect cell system using arachidonic acid as substrate assessed as reduction of PGG2 to PGH2 incubated for 1 min prior to substrate addition measured after 25 secs by chromogenic assay.

Test [2] addresses T2, Prostaglandin G/H synthase 1 (Rattus norvegicus, UniProt Q63921).
T2 sequence (Q63921 whole entry): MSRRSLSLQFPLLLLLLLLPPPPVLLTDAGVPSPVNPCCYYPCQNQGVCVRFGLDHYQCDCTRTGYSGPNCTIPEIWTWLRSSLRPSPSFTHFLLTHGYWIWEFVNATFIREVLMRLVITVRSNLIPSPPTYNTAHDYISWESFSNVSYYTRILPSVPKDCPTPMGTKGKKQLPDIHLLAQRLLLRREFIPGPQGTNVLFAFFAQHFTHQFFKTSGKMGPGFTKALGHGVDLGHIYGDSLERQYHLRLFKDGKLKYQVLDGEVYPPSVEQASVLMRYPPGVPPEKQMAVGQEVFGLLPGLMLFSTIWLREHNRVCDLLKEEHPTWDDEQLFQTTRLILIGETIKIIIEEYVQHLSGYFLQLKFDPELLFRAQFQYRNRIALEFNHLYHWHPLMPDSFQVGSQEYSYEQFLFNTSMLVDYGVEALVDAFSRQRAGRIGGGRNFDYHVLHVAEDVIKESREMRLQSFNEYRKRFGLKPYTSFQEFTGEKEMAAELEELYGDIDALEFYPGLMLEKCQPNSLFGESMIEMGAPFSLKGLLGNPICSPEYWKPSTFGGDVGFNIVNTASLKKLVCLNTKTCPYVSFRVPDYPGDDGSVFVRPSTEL
The test is described as follows: Inhibition of rat seminal vesicle COX-1 using arachidonic acid as substrate assessed as reduction of PGG2 to PGH2 incubated for 1 min prior to substrate addition measured after 25 secs by chromogenic assay.

For test [3], the system named is Rattus norvegicus. The test is described as follows: Antiinflammatory activity in Wistar albino rat assessed as inhibition of carrageenan-induced increase in paw edema at 10 mg/kg, po after 90 mins (reference value: 38.7 %). It is filed as functional. Also on record: scale not given: the % may be the effect or the level left. Background: In the carrageenan paw model, swelling and tenderness develop within hours.

In test [4] the test system is Rattus norvegicus. The test is described as follows: Antiinflammatory activity in Wistar albino rat assessed as inhibition of carrageenan-induced increase in paw edema at 10 mg/kg, po after 30 mins (reference value: 30.1 %). Format: functional. Details: scale not given: the % may be the effect or the level left.
Test [5] is described as follows: Selectivity index, ratio of IC50 for human recombinant COX-2 to IC50 for rat seminal vesicle COX-1. Format: tissue-based.

In general, pIC50 refers to −log10 of the IC50, conventionally taken in molar units.

For `CCOC(=O)c1c(C)oc2ccc(Oc3ccc(OC)cc3)cc12`, the pIC50 in test [1] was 5.07; in test [2] it was 4.42. The Activity in test [3] stood at 12.3%; in test [4] it was 9.5%. For the same compound, the Ratio IC50 in test [5] is 0.23.
Consider `CCOC(=O)c1c(C)oc2ccc(Oc3ccc(C)cc3)cc12`, for which the pIC50 in test [1] was 5.38; in test [2], 4.30. Also, the Activity in test [3] is reported as 25.8%; in test [4], 14.1%. Besides, in test [5], the Ratio IC50 was 0.08.
For the compound `CCOC(=O)c1c(-c2ccccc2)oc2ccc(Oc3ccc4ccccc4c3)cc12`, the Activity in test [3] was determined as 32.6%; in test [4] it was 20.1%.
With `CCOC(=O)c1c(-c2ccccc2)oc2ccc(Oc3ccccc3C)cc12`, the pIC50 in test [1] was 4.70; in test [2], 4.53. The Activity in test [3] came to 24.4%; in test [4], 14.8%. The Ratio IC50 in test [5] is 0.67.
In the case of `CCOC(=O)c1c(C)oc2ccc(Oc3ccccn3)cc12`, the pIC50 in test [1] is 5.09; in test [2] it was 4.55. For the same compound, the Activity in test [3] is given as 18.9%. The Ratio IC50 in test [5] turned out to be 0.29.
Regarding `CCOC(=O)c1c(C)oc2ccc(Oc3ccccc3)cc12`, the pIC50 is 4.73 in test [1] and 4.51 in test [2]. The Activity is on record as 23.8% in test [3] and 15.7% in test [4]. In addition, the Ratio IC50 in test [5] amounted to 0.59.
Take `CCOC(=O)c1c(C)oc2ccc(Oc3ccc4ccccc4c3)cc12`: the pIC50 was 4.80 in test [1] and 4.32 in test [2]. In test [5], the Ratio IC50 stood at 0.35.
Regarding `CCOC(=O)c1c(-c2ccccc2)oc2ccc(Oc3ccccn3)cc12`, the results for the Activity in test [3] and in test [4] were 32.6% and 25.1%, respectively.
On to `CCOC(=O)c1c(C)oc2ccc(Oc3ccccc3C)cc12`, for which the values for the pIC50 in test [1] and in test [2] were 5.21 and 4.45, respectively. The Activity in test [3] was 20.4%; in test [4], 10.1%. Further, in test [5], the Ratio IC50 was found to be 0.17.
In the case of `CCOC(=O)c1c(-c2ccccc2)oc2ccc(Oc3ccc(C)cc3)cc12`, the pIC50 in test [1] is 4.72; in test [2], 4.58. In addition, the results for the Activity in test [3] and in test [4] were 32.6% and 22.1%, respectively. For the same compound, the Ratio IC50 in test [5] amounted to 0.74.
With `CS(=O)(=O)Nc1ccc([N+](=O)[O-])cc1Oc1ccccc1` [NIMESULIDE], the figures for the Activity in test [3] and in test [4] were 23.4% and 14.1%, respectively.
Regarding `CCOC(=O)c1c(-c2ccccc2)oc2ccc(Oc3ccccc3)cc12`, the pIC50 was 4.74 in test [1] and 4.37 in test [2]. Moreover, the Activity turned out to be 28.4% in test [3] and 15.8% in test [4]. For the same compound, the Ratio IC50 in test [5] amounted to 0.43.
